Data from US20250268903A1, “RXFP1 AGONISTS” (BRISTOL-MYERS SQUIBB COMPANY, priority 2021, published 2025).

Target: T1, human RXFP1 (Homo sapiens, UniProt Q9HBX9)
T1 construct: expressed in transfected cells
T1 sequence (Q9HBX9 1-757): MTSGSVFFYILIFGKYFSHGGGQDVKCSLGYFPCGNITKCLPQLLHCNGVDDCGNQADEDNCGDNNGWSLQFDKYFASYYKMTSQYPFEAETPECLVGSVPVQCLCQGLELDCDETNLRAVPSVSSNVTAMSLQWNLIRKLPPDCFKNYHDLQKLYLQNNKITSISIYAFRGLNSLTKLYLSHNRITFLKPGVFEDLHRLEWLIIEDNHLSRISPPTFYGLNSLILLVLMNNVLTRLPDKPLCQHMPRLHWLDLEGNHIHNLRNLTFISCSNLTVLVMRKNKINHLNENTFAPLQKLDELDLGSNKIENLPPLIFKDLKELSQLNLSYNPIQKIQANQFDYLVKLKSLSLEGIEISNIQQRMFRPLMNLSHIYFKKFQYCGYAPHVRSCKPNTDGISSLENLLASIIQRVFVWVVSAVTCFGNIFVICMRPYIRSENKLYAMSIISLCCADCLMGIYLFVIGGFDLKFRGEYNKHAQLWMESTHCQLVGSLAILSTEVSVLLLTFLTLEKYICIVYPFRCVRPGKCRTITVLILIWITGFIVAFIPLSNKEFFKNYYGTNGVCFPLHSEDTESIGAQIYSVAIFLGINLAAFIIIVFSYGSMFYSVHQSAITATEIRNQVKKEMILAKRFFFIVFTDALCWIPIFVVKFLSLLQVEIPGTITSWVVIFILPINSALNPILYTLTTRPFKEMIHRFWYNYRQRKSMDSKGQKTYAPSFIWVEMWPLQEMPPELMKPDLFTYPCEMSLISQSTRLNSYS
Assay: hRXFP1 HEK293 cAMP assay (HTRF)
Format: cell-based
Conditions: HEK293 cells stably expressing human RXFP1, 30 min at room temperature
Procedure: RXFP1 Cyclic Adenosine Monophosphate (cAMP) Assays. […] Cells were dissociated and suspended in assay buffer. The assay buffer was HBSS buffer (with calcium and magnesium) containing 20 mM HEPES, 0.05% BSA, and 0.5 mM IBMX. Cells (3000 cells per well, except 1500 cell per well for HEK293 cells stably expressing human RXFP1) were added to 384-well Proxiplates (Perkin-Elmer). Cells were immediately treated with test compounds in DMSO (2% final) at final concentrations in the range of 0.010 nM to 50 μM. Cells were incubated for 30 min at room temperature. The level of intracellular cAMP was determined using the HTRF HiRange cAMP assay reagent kit (Cisbio) according to manufacturer's instructions. Solutions of cryptate conjugated anti-cAMP and d2 fluorophore-labelled cAMP were made in a supplied lysis buffer separately. Upon completion of the reaction, the cells were lysed with equal volume of the d2-cAMP solution and anti-cAMP solution. […] The potency and activity of a compound to […] cAMP production was then determined by fitting to a 4-parametric logistic equation from a plot of cAMP level versus compound concentrations.

`COc1ccc(C2CC2CO)cc1C(=O)N[C@@H]1C2CCC(/C2=C/C(F)(F)F)[C@@H]1C(=O)Nc1ccc(F)c(C(F)(F)F)c1` (single isomer, unassigned) [Example 64] showed an EC50 of 252 nM.

`CCOC(=O)/C(C)=C/c1ccc(OC)c(C(=O)N[C@H]2[C@@H](C(=O)Nc3ccc(F)c(C(F)(F)F)c3)[C@H]3CC[C@@H]2/C3=C\C(F)(F)F)c1` [Example 318, ethyl (2E)-3-(3-{[(1R,2R,3S,4R,7Z)-3-{[4-fluoro-3-(trifluoromethyl)phenyl]carbamoyl}-7-(2,2,2-trifluoroethylidene)bicyclo[2.2.1]heptan-2-yl]carbamoyl}-4-methoxyphenyl)-2-methylprop-2-enoate] showed an EC50 of 2230 nM.

With `COc1ccc(S(=O)(=O)N2CCN3C(=O)CCC3C2)cc1C(=O)N[C@H]1[C@@H](C(=O)Nc2ccc(F)c(C(F)(F)F)c2)[C@H]2CC[C@@H]1/C2=C\C(F)(F)F` (stereo partly drawn) [Example 210, (1R,2S,3R,4R,7Z)-N-[4-fluoro-3-(trifluoromethyl)phenyl]-3-[2-methoxy-5-({6-oxo-octabydropyrrolo [1,2-a]piperazin-2-yl}sulfonyl)benzamido]-7-(2,2,2-trifluoroethylidene) bicyclo[2.2.1] heptane-2-carboxamide] the EC50 was 237 nM.

For `COc1ccc(C(=O)N2CC(O)C2)cc1C(=O)N[C@H]1[C@@H](C(=O)Nc2ccc(F)c(C(F)(F)F)c2)[C@H]2CC[C@@H]1/C2=C\C1CC1` [Example 251, (1R,2S,3R,4R,7Z)-7-(cyclopropylmethyl-idene)-N-[4-fluoro-3-(trifluoromethyl)phenyl]-3-[5-(3-hydroxyazetidine-1-carbonyl)-2-methoxybenzamido] bicyclo[2.2.1]heptane-2-carboxamide], the EC50 was 44 nM.

`COc1ccc(CCCCOC(=O)NC2CCC2)cc1C(=O)N[C@@H]1C2CCC(/C2=C/C(F)(F)F)[C@@H]1C(=O)Nc1ccc(F)c(C(F)(F)F)c1` (stereo partly drawn) [Example 102, 4-(3-{[(2R,3S,7Z)-3-{[4-fluoro-3-(trifluoromethyl)phe-nyl]carbamoyl}-7-(2,2,2-trifluoroethylidene)bi-cyclo[2.2.1]heptan-2-yl]carbamoyl}-4-methoxyphenyl)butyl N-cyclobutylcarbamate] gave an EC50 of 439 nM.

In the case of `COc1ccc(/C=C/C(=O)NCC(F)(F)F)cc1C(=O)NC1C2CCC(/C2=C/C(F)(F)F)[C@@H]1C(=O)Nc1ccc(F)c(C(F)(F)F)c1` (stereo partly drawn) [Example 136, (2S,3R,7Z)-N-[4-fluoro-3-(trifluoromethyl)phe-nyl]-3-{2-methoxy-5-[(1E)-2-[(2,2,2-trifluoroethyl)carba-moyl]eth-1-en-1-yl]benzamido}-7-(2,2,2-trifluoroethylidene)bi-cyclo[2.2.1]heptane-2-carboxamide], the EC50 is reported as 776 nM.

`COc1ccc(CCCN)cc1C(=O)N[C@H]1[C@@H](C(=O)Nc2ccc(F)c(C(F)(F)F)c2)[C@H]2CC[C@@H]1/C2=C\C(F)(F)F` [Example 110, (1R,2S,3R,4R,Z)-3-(5-(3-aminopropyl)-2-methoxybenzamido)-N-(4-fluoro-3-(trifluoromethyl)phenyl)-7-(2,2,2-trifluoroethylidene) bicyclo[2.2.1]heptane-2-carboxamide] gave an EC50 of 2520 nM.

Work on `COc1ccc(C2CC2C(=O)N2CCC(O)CC2)cc1C(=O)N[C@H]1[C@@H](C(=O)Nc2ccc(F)c(C(F)(F)F)c2)[C@H]2CC[C@@H]1/C2=C\C1CC1` (single isomer, unassigned) [Example 321] yielded an EC50 of 28.5 nM.

Work on `COc1ccc(CCC(C)(C)O)cc1C(=O)NC1C2CCC(/C2=C/C2CCOC2)[C@@H]1C(=O)Nc1ccc(F)c(C(F)(F)F)c1` (stereo partly shown) [Example 169, (7Z)-N-[4-fluoro-3-(trifluoromethyl)phe-nyl]-3-[5-(3-hydroxy-3-methylbutyl)-2-methoxybenzamido]-7-[(oxolan-3-yl)methylidene]bicy-clo[2.2.1]heptane-2-carboxamide] yielded an EC50 of 102 nM.

`COc1ccc(C2CC3CC(CO)CC32)cc1C(=O)N[C@H]1[C@@H](C(=O)Nc2ccc(F)c(C(F)(F)F)c2)[C@H]2CC[C@@H]1/C2=C\C1CC1` (single isomer, unassigned) [Example 350] gave an EC50 of 17.7 nM.

Work on `COc1ccc(C(=O)N2CC[C@@H](CO)C2)cc1C(=O)N[C@H]1[C@@H](C(=O)Nc2ccc(F)c(C(F)(F)F)c2)[C@H]2CC[C@@H]1/C2=C\C1CC1` [Example 245, (1R,2S,3R,4R,7Z)-7-(cyclopropyl-methylidene)-N-[4-fluoro-3-(trifluoromethyl)phenyl]-3-{5-[(3R)-3-(hydroxymethyl)pyrrolidine-1-carbonyl]-2-methoxybenzamido} bicyclo[2.2.1]heptane-2-carboxamide] yielded an EC50 of 37.8 nM.

Compound `COc1ccc(CN2C(=O)NC3(CCOC3)C2=O)cc1C(=O)N[C@H]1[C@@H](C(=O)Nc2ccc(F)c(C(F)(F)F)c2)[C@H]2CC[C@@H]1/C2=C\C1CC1` (stereo partly drawn) [Example 295, (1R,2S,3R,4R,7Z)-7-(cyclopropyl-methylidene)-3-[5-({2,4-dioxo-7-oxa-1,3-diazaspiro[4.4]nonan-3-yl}methyl)-2-methoxybenzamido]-N-[4-fluoro-3-(trifluoromethyl)phenyl]bicyclo [2.2.1]heptane-2-carboxamide] has an EC50 of 70.4 nM.

With `COC(=O)C1CC(c2ccc(OC)c(C(=O)N[C@H]3[C@@H](C(=O)Nc4ccc(F)c(C(F)(F)F)c4)[C@H]4CC[C@@H]3/C4=C\C(F)(F)F)c2)C1` (stereo partly drawn) [Example 331, methyl 3-(3-{(1R.2R,3S,4R,7Z)-3-{[4-fluoro-3-(trifluoromethyl)phenyl]carbamoyl}-7-(2,2,2-trifluoroethylidene)bicyclo[2.2.1]heptan-2-yl]carbamoyl}-4-methoxyphenyl) cyclobutane-1-carboxylate] the EC50 was 551 nM.

With `CNc1ccc(CCCO)cc1C(=O)N[C@H]1[C@@H](C(=O)Nc2ccc(F)c(C(F)(F)F)c2)[C@H]2CC[C@@H]1/C2=C\C(F)(F)F` [Example 11, (1R,2S,3R,4R,Z)—N-(4-fluoro-3-(trifluoromethyl)phenyl)-3-(5-(3-hydroxypropyl)-2-(methylamino)benzamido)-7-(2,2,2-trifluoroethylidene) bicyclo[2.2.1]heptane-2-carboxamide] the EC50 was 4710 nM.

Compound `COC(=O)c1ccc(F)cc1Cc1ccc(OC)c(C(=O)NC2C3CCC(/C3=C/C(F)(F)F)[C@@H]2C(=O)Nc2ccc(F)c(C(F)(F)F)c2)c1` (stereo partly drawn) [Example 156, methyl 4-fluoro-2-[(3-{[(2R,3S,7Z)-3-{[4-fluoro-3-(trifluoromethyl)phe-nyl]carbamoyl}-7-(2,2,2-trifluoroethylidene)bi-cyclo[2.2.1]heptan-2-yl]carbamoyl}-4-methoxyphenyl)meth-yl]benzoate] has an EC50 of 464 nM.

`COc1ccc(S(=O)(=O)NC[C@H](C)O)cc1C(=O)N[C@@H]1C2CCC(/C2=C/C(F)(F)F)[C@@H]1C(=O)Nc1ccc(F)c(C(F)(F)F)c1` (stereo partly drawn) [Example 197, (1R,2S,3R,4R,Z)—N-(4-fluoro-3-(trifluoromethyl)phenyl)-3-(5-(N—((S)-2-hydroxypropyl)sulfamoyl)-2-methoxybenzamido)-7-(2,2,2-trifluoroethylidene) bicyclo[2.2.1]heptane-2-carboxamide] showed an EC50 of 918 nM.

`COc1ccc(CCC(C)(C)O)cc1C(=O)NC1C2CCC(/C2=C/C(C)C)[C@@H]1C(=O)Nc1ccc(F)c(C(F)(F)F)c1` (stereo partly shown) [Example 158, (7Z)-N-[4-fluoro-3-(trifluoromethyl)phe-nyl]-3-[5-(3-hydroxy-3-methylbutyl)-2-methoxybenzamido]-7-(2-methylpropylidene)bi-cyclo[2.2.1]heptane-2-carboxamide] was tested, and the EC50 was 9 nM.

`COc1ccc(CCC(C)(C)O)cc1C(=O)N[C@H]1[C@@H](C(=O)NCC(C)(C)C)[C@H]2CC[C@@H]1/C2=C\C1CC1` [Example 271, (1R,2S,3R,4R,7Z)-7-(cyclopropylmethyl-idene)-N-(2,2-dimethylpropyl)-3-[5-(3-hydroxy-3-methylbutyl)-2-methoxybenzamido] bicyclo[2.2.1]heptane-2-carboxamide] showed an EC50 of 264 nM.

`COc1ccc(C2CCCCC2)cc1C(=O)N[C@@H]1C2CCC(/C2=C/C(F)(F)F)[C@@H]1C(=O)Nc1ccc(F)c(C(F)(F)F)c1` (stereo partly drawn) [Example 39, (2S,3R,7Z)-3-(5-cyclohexyl-2-methoxybenzamido)-N-[4-fluoro-3-(trifluoromethyl)phenyl]-7-(2,2,2-trifluoroethylidene) bicyclo[2.2.1]heptane-2-carboxamide] gave an EC50 of 611 nM.
